The record followed here is patent publication US20260053861A1, “CELL COMPOSITIONS AND METHODS OF USING THE SAME” (THE REGENTS OF THE UNIVERSITY OF CALIFORNIA, priority 2022, published 2026).

Molecules are shown by their SMILES. Where a name gives a salt, the structure may show the parent alone.

In one assay the test system is hPSC-SCs.
Conditions: not given
On to `C[C@@H]1C(=O)O[C@H]2C[C@@]34[C@H]5C[C@@H](C(C)(C)C)[C@]36[C@@H](OC(=O)[C@@H]6O)O[C@@]4(C(=O)O5)[C@]21O` [Ginkgolide A], for which the z.score.t is 1.034.

Compound `O=C(OCC(O)CO)c1ccccc1Nc1ccnc2cc(Cl)ccc12` (stereo not drawn) [Glafenine hydrochloride] gave a z.score.t of −0.727.

In the case of `CCC1(c2ccc(N)cc2)CCC(=O)NC1=O` (stereo not drawn) [Glutethimide, para-amino], the z.score.t came to 0.1149.

On to `Cc1cc2c(C(C)C)c(O)c(O)c(C=O)c2c(O)c1-c1c(C)cc2c(C(C)C)c(O)c(O)c(C=O)c2c1O` [Gossypol], for which the z.score.t was −2.368.

`COc1ccc2c3c([nH]c2c1)C(C)=NCC3.Cl.O.O` [Harmaline hydrochloride dihydrate] displayed a z.score.t of 1.306.

Compound `COc1ccc2c(c1)[nH]c1c(C)nccc12.Cl` [Harmine hydrochloride] had a z.score.t of −1.122.

Turning to `Cc1[nH]ccc2c1[nH]c1cc(=O)ccc12` [Harmol hydrochloride monohydrate], the z.score.t is −0.7233.

In the case of `CO[C@H](C)[C@](O)(C(=O)OCC1=CCN2CC[C@H](O)[C@@H]12)C(C)C` [Heliotrine], the z.score.t was −0.3023.

`C[N+]1(C)CCOC(O)(c2ccc(-c3ccc(C4(O)C[N+](C)(C)CCO4)cc3)cc2)C1.[Br-].[Br-]` (stereo not drawn) [Hemicholinium bromide] registered a z.score.t of −0.07901.

Compound `COc1ccc([C@@H]2CC(=O)c3c(O)cc(O[C@@H]4O[C@H](CO[C@@H]5O[C@@H](C)[C@H](O)[C@@H](O)[C@H]5O)[C@@H](O)[C@H](O)[C@H]4O)cc3O2)cc1O` [Hesperidin] came in with a z.score.t of 0.2399.

As to `C[N+](C)(C)CCCCCC[N+](C)(C)C.O.O.[Br-].[Br-]` [Hexamethonium dibromide dihydrate], the z.score.t is given as 0.7913.

In turn, `CN1CCC2=C[C@H](O)[C@H]3OC(=O)c4cc5c(cc4[C@H]3[C@@H]21)OCO5` [Hippeastrine hydrobromide] returned a z.score.t of 1.178.

Consider `CN1CCCN(C(c2ccccc2)c2ccc(Cl)cc2)CC1` (stereo not drawn) [Homochlorcyclizine dihydrochloride], for which the z.score.t is listed as −1.66.

Turning to `COc1ccc2c(c1OC)C(=O)O[C@@H]2[C@H]1c2cc3c(cc2CCN1C)OCO3` [Hydrastine hydrochloride], the z.score.t is recorded as −0.4139.

`CN1[C@@H]2CC[C@H]1C[C@@H](OC(=O)[C@H](CO)c1ccccc1)C2` [Hyoscyamine (L)] yielded a z.score.t of −0.528.

The compound `O=C(NCNC(=O)NC1C(=O)NC(=O)N1CO)NC1C(=O)NC(=O)N1CO` (stereo not drawn) [Imidurea] had a z.score.t of 1.224.

With `CC(=O)N(CC(O)CN(C(C)=O)c1c(I)c(C(=O)NCC(O)CO)c(I)c(C(=O)NCC(O)CO)c1I)c1c(I)c(C(=O)NCC(O)CO)c(I)c(C(=O)NCC(O)CO)c1I` (stereo not drawn) [Iodixanol], the z.score.t is listed as 0.7539.

`CC(C)[N+]1(C)[C@@H]2CC[C@H]1CC(OC(=O)C(CO)c1ccccc1)C2.[Br-]` (stereo partly drawn) [Ipratropium bromide] showed a z.score.t of −0.649.

Still in this assay, the particulars now being: HTS viability of hPSC-SCs in the presence of 30 mM glucose; Prestwick library; Table S4.
Turning to `C=C1C[C@]23C[C@@]1(O)CC[C@H]2[C@@]12C=C[C@H](O)[C@@](C)(C(=O)O1)[C@H]2[C@@H]3C(=O)O` [Gibberellic acid], the z.score.t is −0.3452.

With `COc1ccc(Cl)cc1C(=O)NCCc1ccc(S(=O)(=O)NC(=O)NC2CCCCC2)cc1` [Glibenclamide], the z.score.t is listed as −0.7776.

As for `Cc1ccc(S(=O)(=O)NC(=O)NN2CC3CCCC3C2)cc1` (stereo not drawn) [Gliclazide], the z.score.t was −0.03629.

For `CCC1=C(C)CN(C(=O)NCCc2ccc(S(=O)(=O)NC(=O)N[C@H]3CC[C@H](C)CC3)cc2)C1=O` [Glimepiride], the z.score.t came out at 1.252.

For `Cc1cnc(C(=O)NCCc2ccc(S(=O)(=O)NC(=O)NC3CCCCC3)cc2)cn1` [Glipizide], the z.score.t turned out to be 1.43.

Take `COc1ccc2c(c1)C(=O)N(CCc1ccc(S(=O)(=O)NC(=O)NC3CCCCC3)cc1)C(=O)C2(C)C` [Gliquidone]: the z.score.t was determined as 2.369.

`C[C@H](CCC(=O)NCC(=O)O)[C@H]1CC[C@H]2[C@@H]3[C@H](O)C[C@@H]4C[C@H](O)CC[C@]4(C)[C@H]3C[C@H](O)[C@]12C` [Glycocholic acid]: the z.score.t is reported as −0.8478.

Turning to `C[N+]1(C)CCC(OC(=O)C(O)(c2ccccc2)C2CCCC2)C1` (stereo not drawn) [Glycopyrrolate], the z.score.t is −0.1913.

Take `CN(C)Cc1c[nH]c2ccccc12` [Gramine]: the z.score.t came to 1.018.

With `Cn1c(-c2ccc3c(c2)OCO3)cc(=O)c2ccccc21` [Graveoline], the z.score.t worked out at 0.495.

`COC1=CC(=O)C[C@@H](C)[C@]12Oc1c(Cl)c(OC)cc(OC)c1C2=O` [Griseofulvin]: the z.score.t is given as −0.636.

On to `COc1ccccc1OCC(O)CO` (stereo not drawn) [Guaifenesin], for which the z.score.t is −0.3023.

For `N=C(N)N/N=C/c1c(Cl)cccc1Cl` [Guanabenz acetate], the z.score.t worked out at 0.5179.

Turning to `N=C(N)NC(=O)Cc1c(Cl)cccc1Cl` [Guanfacine hydrochloride], the z.score.t was found to be 0.9047.

As to `CC1(C)O[C@@H]2C[C@H]3[C@@H]4CCC5=CC(=O)CC[C@]5(C)[C@@]4(F)[C@@H](O)C[C@]3(C)[C@]2(C(=O)CCl)O1` [Halcinonide], the z.score.t came to 1.238.

Turning to `CCCCN(CCCC)CCC(O)c1cc2c(Cl)cc(Cl)cc2c2cc(C(F)(F)F)ccc12` (stereo not drawn) [Halofantrine hydrochloride], the z.score.t was −1.422.

As to `O=C(CCCN1CCC(O)(c2ccc(Cl)cc2)CC1)c1ccc(F)cc1` [Haloperidol], the z.score.t is −1.111.

Consider `CC1=NCCc2c1[nH]c1cc(O)ccc21.Cl.O.O` [Harmalol hydrochloride dihydrate], for which the z.score.t is reported as −0.7953.

Take `C[C@]1(OC(=O)/C=C/c2ccccc2)C[C@@H](O)[C@]2(O)C=CO[C@@H](O[C@@H]3O[C@H](CO)[C@@H](O)[C@H](O)[C@H]3O)[C@@H]21` [Harpagoside]: the z.score.t is given as −0.8347.

As for `CC(N)CCCC(C)(C)O` (stereo not drawn) [Heptaminol hydrochloride], the z.score.t was 0.7415.

For the compound `COc1ccc([C@@H]2CC(=O)c3c(O)cc(O)cc3O2)cc1O` [Hesperetin], the z.score.t is 1.785.

Take `CC[C@H](c1ccc(O)cc1)[C@@H](CC)c1ccc(O)cc1` [Hexestrol]: the z.score.t is recorded as 0.1469.

In the case of `CCCCC(CC)CN1CN(CC(CC)CCCC)CC(C)(N)C1` (stereo not drawn) [Hexetidine], the z.score.t is reported as −1.372.

On to `CC(CNC1CCCCC1)OC(=O)c1ccccc1` (stereo not drawn) [Hexylcaine hydrochloride], for which the z.score.t is −0.6194.

`CC1CC(OC(=O)c2ccccc2O)CC(C)(C)C1` (stereo not drawn) [Homosalate]: the z.score.t is −0.751.

Take `CCN(CC)CCNc1ccc(CO)c2sc3ccccc3c(=O)c12` [Hycanthone]: the z.score.t is given as −0.2904.

As to `NNc1nncc2ccccc12` [Hydralazine hydrochloride], the z.score.t is on record as 1.472.

For `CN1CCc2cc3c(cc2C1O)OCO3` (stereo not drawn) [Hydrastinine hydrochloride], the z.score.t is reported as 1.785.

On to `NS(=O)(=O)c1cc2c(cc1Cl)NCNS2(=O)=O` [Hydrochlorothiazide], for which the z.score.t was 0.1742.

For the compound `C[C@]12CCC(=O)C=C1CC[C@@H]1[C@@H]2[C@@H](O)C[C@@]2(C)[C@H]1CC[C@]2(O)C(=O)CO` [Hydrocortisone base], the z.score.t is on record as 1.76.

On to `COc1c2c(cc3c1OCO3)CCN(C)C2` [Hydrocotarnine hydrobromide], for which the z.score.t came to 1.168.

For the compound `NS(=O)(=O)c1cc2c(cc1C(F)(F)F)NCNS2(=O)=O` [Hydroflumethiazide], the z.score.t was −0.1092.

Regarding `CC[C@H]1CN2CC[C@H]1C[C@H]2[C@H](O)c1ccnc2ccc(OC)cc12` [Hydroquinine hydrobromide hydrate], the z.score.t is 0.1131.

On to `OCCOCCN1CCN(C(c2ccccc2)c2ccc(Cl)cc2)CC1` (stereo not drawn) [Hydroxyzine dihydrochloride], for which the z.score.t was −0.3011.

Regarding `Cc1cc(=O)oc2cc(O)ccc12` [Hymecromone], the z.score.t stood at 0.9525.

Regarding `c1ccc2c(c1)OCC(C1=NCCN1)O2` (stereo not drawn) [Idazoxan hydrochloride], the z.score.t is recorded as −0.03362.

For `O=c1[nH]c(=O)n([C@H]2C[C@H](O)[C@@H](CO)O2)cc1I` [Idoxuridine], the z.score.t is given as 0.8757.

Regarding `O=P1(NCCCl)OCCCN1CCCl` (stereo not drawn) [Ifosfamide], the z.score.t came to 0.1469.

With `C[C@@H](O)[C@H]1C(=O)N2C(C(=O)O)=C(SCCN=CN)C[C@H]12` [Imipenem], the z.score.t is on record as 0.767.

Turning to `CN(C)CCCN1c2ccccc2CCc2ccccc21` [Imipramine hydrochloride], the z.score.t is −0.7013.

Turning to `CC1Cc2ccccc2N1NC(=O)c1ccc(Cl)c(S(N)(=O)=O)c1` (stereo not drawn) [Indapamide], the z.score.t was determined as 0.02534.

On to `COc1ccc2c(c1)c(CC(=O)O)c(C)n2C(=O)c1ccc(Cl)cc1` [Indomethacin], for which the z.score.t is recorded as 1.045.

For the compound `CC(C(=O)O)c1ccc(N2Cc3ccccc3C2=O)cc1` (stereo not drawn) [Indoprofen], the z.score.t came out at 0.1916.

Turning to `CC(=O)N(CC(C)C(=O)O)c1c(I)cc(I)c(N)c1I` (stereo not drawn) [Iocetamic acid], the z.score.t is 0.9178.

With `O=C(CCCCC(=O)Nc1c(I)cc(I)c(C(=O)O)c1I)Nc1c(I)cc(I)c(C(=O)O)c1I` [Iodipamide], the z.score.t amounted to 0.5976.

For `CC(=O)N(CC(O)CO)c1c(I)c(C(=O)NCC(O)CO)c(I)c(C(=O)NCC(O)CO)c1I` (stereo not drawn) [Iohexol], the z.score.t is −0.07901.

On to `C[C@H](O)C(=O)Nc1c(I)c(C(=O)NC(CO)CO)c(I)c(C(=O)NC(CO)CO)c1I` [Iopamidol], for which the z.score.t is reported as −1.025.

`CCC(Cc1c(I)cc(I)c(N)c1I)C(=O)O` (stereo not drawn) [Iopanoic acid]: the z.score.t worked out at 1.279.

Regarding `COCC(=O)Nc1c(I)c(C(=O)NCC(O)CO)c(I)c(C(=O)N(C)CC(O)CO)c1I` (stereo not drawn) [Iopromide], the z.score.t is −0.5992.

Regarding `O=C(NCC(O)CO)c1c(I)c(C(=O)NCC(O)CO)c(I)c(N(CCO)C(=O)CO)c1I` (stereo not drawn) [Ioversol], the z.score.t was −0.5789.

Consider `CNC(=O)c1c(I)c(C(=O)NCC(=O)Nc2c(I)c(C(=O)O)c(I)c(C(=O)NCCO)c2I)c(I)c(N(C)C(C)=O)c1I` [Ioxaglic acid], for which the z.score.t is listed as 1.475.
